Laboratory results taken from patent US20260285853A1, “COMPOUNDS AND METHODS FOR MODULATING SPLICING” (REMIX THERAPEUTICS INC., priority 2023, published 2026).

Assays:
Type in all cases: cell-based
[1] = tested on: HTT mRNA; assay: Splicing RT-qPCR assay (THP), Table 2A; settings: Table 2A (THP); for AC50: AJ mRNA increase, read-out: HTT AJ (increase in alternative junction mRNA, AC50); for IC50: CJ mRNA decrease, read-out: HTT CJ (decrease in canonical junction mRNA, IC50)
[2] = tested on: MYB mRNA; assay: Splicing RT-qPCR assay (THP), Table 2A; settings: Table 2A (THP); for AC50: AJ mRNA increase, read-out: MYB AJ (increase in alternative junction mRNA, AC50); for IC50: CJ mRNA decrease, read-out: MYB CJ (decrease in canonical junction mRNA, IC50)
[3] = tested on: HTT mRNA; assay: Gene panel canonical junction qPCR assay, decrease in CJ mRNA, Table 3; settings: decrease in canonical junction (CJ) mRNA, gene panel qPCR, Table 3
Summary of the method: (§1)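 Canonical exon-junction (CJ) transcript measured by 5′ nuclease RT-qPCR, normalized to GAPDH, GUSB or PPIA and to DMSO control (2^(−ΔΔCt)). A673 or K562 cells treated 24 h at 37° C with an 11-point 3-fold dilution series, top 10 uM, DMSO ≤0.25%. IC50 from 4-parameter logistic fit of percentage CJ decrease.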

[4] = tested on: MYB mRNA; assay: as above; settings: decrease in canonical junction (CJ) mRNA, gene panel qPCR, Table 3
Summary of the method: as §1

[5] = tested on: SH-SY5Y (human neuroblastoma) cells; assay: Cell viability, Cell Titer Glo 2.0 assay; settings: read-out: Viability SHSY5Y.3 GI50
Summary of the method: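 SH-SY5Y cells were exposed to serially diluted compounds in IMDM with 10% FBS and 0.1% DMSO for 72 hours at 37° C., 5% CO2. Viability was measured by CellTiter-Glo 2.0 luminescence, with medium-only wells as blank.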

Structure (SMILES)	AC50 [1] [nM]	IC50 [1] [nM]	AC50 [2] [nM]	IC50 [2] [nM]	IC50 [3] [nM]	IC50 [4] [nM]	GI50 [5] [nM]
Cc1nc(C)c2nc(NC(=O)c3ccc(N4CCC(NC5CC5)CC4)c4cn(C)nc34)cn2c1C [Compound 495, 4-[4-(cyclopropyl-amino)-1-piperidyl]-2-meth-yl-N-(5,6,8-trimethylimi-dazo-[1,2-a]pyrazin-2-yl)-indazole-7-carboxamide]	100 to 1000	100 to 1000	100 to 1000	100 to 1000	100 to 1000	100 to 1000	100 to 1000
Cc1cn2cc(NC(=O)c3ccc(N4CC5(CNC5)C4)c4cn(C)nc34)nc2c(C)n1 [Compound 496]	> 10000	> 10000	100 to 1000	1000 to 10000	> 10000	1000 to 10000	> 10000
Cc1cn2cc(NC(=O)c3ccc(N4CC5(CNCCO5)C4)c4cn(C)nc34)nc2c(C)n1 [Compound 497]	> 10000	> 10000	> 10000	> 10000	> 10000	> 10000	1000 to 10000
Cc1cn2cc(NC(=O)c3ccc(N4CC(C5CNC5)C4)c4cn(C)nc34)nc2c(C)n1 [Compound 498]	> 10000	> 10000	> 10000	> 10000	> 10000	> 10000	> 10000
Cc1cn2cc(NC(=O)c3ccc(N4CC(C5CCNCC5)C4)c4cn(C)nc34)nc2c(C)n1 [Compound 499]	1000 to 10000	1000 to 10000	1000 to 10000	1000 to 10000	1000 to 10000	1000 to 10000	1000 to 10000
Cc1cn2cc(NC(=O)c3ccc(N4CC(N5CCNCC5)C4)c4cn(C)nc34)nc2c(C)n1 [Compound 500]	> 10000	> 10000	> 10000	> 10000	> 10000	> 10000	> 10000
CNC1CCN(c2ccc(C(=O)Nc3cn4cc(C)nc(C)c4n3)c3nn(C)cc23)C1 (stereo not drawn) [Compound 505]	100 to 1000	100 to 1000	100 to 1000	100 to 1000	100 to 1000	100 to 1000	100 to 1000
COc1cc2nn(C)cc2cc1NC(=O)c1ccc(N2CC3(CNC3)C2)c2cn(C)nc12 [Compound 506]	1000 to 10000	1000 to 10000	100 to 1000	100 to 1000	1000 to 10000	100 to 1000	> 10000
COc1cc2nn(C)cc2cc1NC(=O)c1ccc(N2CC3(CCNCC3)C2)c2cn(C)nc12 [Compound 507]	1000 to 10000	1000 to 10000	100 to 1000	1000 to 10000	1000 to 10000	1000 to 10000	1000 to 10000
COc1cc2nn(C)cc2cc1NC(=O)c1ccc(N2CC3(CNCCO3)C2)c2cn(C)nc12 [Compound 508]	> 10000	> 10000	1000 to 10000	> 10000	> 10000	> 10000	1000 to 10000
COc1cc2nn(C)cc2cc1NC(=O)c1ccc(N2CC(C3CNC3)C2)c2cn(C)nc12 [Compound 509]	> 10000	> 10000	> 10000	> 10000	> 10000	> 10000	> 10000
COc1cc2nn(C)cc2cc1NC(=O)c1ccc(N2CCC3(CCCN3)C2)c2cn(C)nc12 (stereo not drawn) [Compound 512]	> 10000	> 10000	100 to 1000	1000 to 10000	> 10000	1000 to 10000	1000 to 10000
COc1cc2nn(C)cc2cc1NC(=O)c1ccc(N2CCC3(CCNC3)C2)c2cn(C)nc12 (stereo not drawn) [Compound 513]	> 10000	> 10000	1000 to 10000	1000 to 10000	> 10000	1000 to 10000	> 10000
COc1cc2nn(C)cc2cc1NC(=O)c1ccc(N2CC3CNCC3C2)c2cn(C)nc12 (stereo not drawn) [Compound 514]	1000 to 10000	1000 to 10000	100 to 1000	100 to 1000	1000 to 10000	100 to 1000	> 10000
COc1cc2nn(C)cc2cc1NC(=O)c1ccc(N2CC[C@@H]3CNCC[C@@H]32)c2cn(C)nc12 [Compound 515]	1000 to 10000	> 10000	100 to 1000	100 to 1000	> 10000	100 to 1000	1000 to 10000
CNC1CCN(c2ccc(C(=O)Nc3cc4cn(C)nc4cc3OC)c3nn(C)cc23)C1 (stereo not drawn) [Compound 518]	1000 to 10000	1000 to 10000	< 100	100 to 1000	1000 to 10000	100 to 1000	1000 to 10000
CNC1CCN(c2ccc(NC(=O)c3cc4cc(C)nn4cc3OC)c3nn(C)cc23)CC1 [Compound 520, 6-methoxy-2-methyl-N-[2-methyl-4-[4-(methyamino)-1-piperidyl]indazol-7-yl]-pyrazolo[1,5-a] pyridine-5-carboxamide]	> 10000	> 10000	> 10000	> 10000	> 10000	> 10000	> 10000
CNC1CCN(c2ccc(NC(=O)c3cc4cn(C)nc4cc3OC)c3nn(C)cc23)CC1 [Compound 521, 6-methoxy-2-methyl-N-[2-methyl-4-[4-(methylamino)-1-piperidyl]indazol-7-yl]-indazole-5-carboxamide]	> 10000	> 10000	> 10000	> 10000	> 10000	> 10000	> 10000
COc1cc2nn(C)cc2cc1NC(=O)c1ccc(N2CCC(NC3CC3)CC2)c2c(CO)n(C)nc12 [Compound 522, 4-[4-(cyclopropylamino)-1-piperidyl]-3-(hydroxymethyl)-N-(6-methoxy-2-methyl-indazol-5-yl)-2-methyl-indazole-7-carboxamide]	1000 to 10000	1000 to 10000	1000 to 10000	1000 to 10000	1000 to 10000	1000 to 10000	1000 to 10000
CCNC1CCN(c2ccc(C(=O)Nc3cn4cc(C)nc(C)c4c3F)c3nn(C)cc23)CC1 [Compound 523, 4-[4-(ethylamino)-1-piperidyl]-N-(8-fluoro-1,3-dimethyl-pyrrolo[1,2-a]pyrazin-7-yl)-2-methyl-indazole-7-carboxamide]	1000 to 10000	1000 to 10000	1000 to 10000	1000 to 10000	1000 to 10000	1000 to 10000	1000 to 10000
COc1nc2nc(C)cn2cc1NC(=O)c1ccc(N2CCC(NC3CC3)CC2)c2cn(C)nc12 [Compound 524, 4-[4-(cyclopropyl-amino)-1-piperidyl]-N-(7-methoxy-2-methylimidazo-[1,2-a]-pyrimidin-6-yl)-2-methyl-indazole-7-carboxamide]	1000 to 10000	1000 to 10000	< 100	< 100	1000 to 10000	< 100	100 to 1000
